Consider one molecule from publication PMC11979885, “Mechanistic Investigation into the Phase Separation Behavior of Soluplus in the Presence of Biorelevant Media” (Molecular Pharmaceutics, 2025).

Each structure is given as a SMILES string. ≈ marks a conversion by molar mass, not a printed value. Like-named read-outs stand apart in the source and are kept apart here.

The solubility is the concentration that dissolves in the medium under given conditions.

Assay type in all cases: physicochemical
A short description of data set [1]: DSC glass forming ability / crystallization tendency classification. The note with it: classification according to Baird et al. The method, then: The manufactured spray-dried dispersion as well as the neat crystalline drug was investigated in triplicate using DSC to detect the presence of crystalline material and to gain information about the glass transition temperature (Tg) of the materials. For this purpose, a DSC 1 Star system instrument from Mettler-Toledo AG (Greifensee, Switzerland) was used. The instrument was calibrated for temperature and heat flow using indium, and the analysis was performed with an air flow rate of 150 mL min^–1. Samples were weighed into 40 μL aluminum pans (Mettler-Toledo AG, Greifensee, CH), sealed with pierced aluminum lids, and placed into the DSC. The analysis of the spray-dried dispersion was carried out as a heating cycle which heated the sample from RT to 190 °C at 10 K min^–1, followed by cooling down to −50 °C at −20 K min^–1 and finally reheating to 190 °C at 10 K min^–1. The analysis of the neat crystalline drug was carried out according to Baird et al.,[36] to evaluate the glass forming ability of the drug. The second heating ramp was used to measure the Tg without the influence of evaporating moisture.

Data set [2] in a line: Equilibrium solubility of crystalline RO6897779 in FaSSIF-V1 with and without Soluplus. Here is the method: The solubility of RO6897779 was determined in FaSSIF-V1 and in the presence of previously outlined Soluplus concentrations dissolved in FaSSIF-V1 to determine the apparent degree of supersaturation induced during solvent shift experiments. Samples were prepared by adding an excess amount of RO6897779 (≈5 mg) to 3 mL of the excipient solutions, or neat FaSSIF-V1 medium, and were stirred at 250 rpm at 37 °C (Mixdrive 15, 2MAG, München, Germany). Samples were equilibrated for 48 h. Solid–liquid separation was conducted by centrifugation at 11,500 g for 5 min using Ultrafree centrifugal units. The supernatant was immediately diluted with a 1:1 (v/v) mixture of acetonitrile and deionized water to fall into the linear region of the calibration curve during high-performance liquid chromatography (HPLC), as described under HPLC drug quantification below.
(§1) RO6897779 was quantified using reversed-phase HPLC. An Agilent 1200 series HPLC system (Agilent Technologies Inc., US) equipped with an Agilent Eclipse Plus C18 column (5 μm, 4.6 mm × 150 mm) was used for sample separation. Detection and quantification of RO6897779 were performed by using a variable wavelength detector set to 214 nm. The mobile phase consisted of (A) HPLC-grade deionized water and (B) and acetonitrile both containing 0.1% [v/v] formic acid. […] Data analysis was conducted using Agilent’s OpenLab CDS software Version 2.6.

A short description of data set [3]: Solvent shift supersaturation kinetics of RO6897779 in Soluplus solutions in FaSSIF-V1. The note with it: for apparent degree of supersaturation (aDS) induced: nominal 1 mg mL^–1 drug, FaSSIF-V1, 37 °C. Here is the method: Solvent shift experiments were conducted in the Pion microDISS Profiler to assess the supersaturation kinetics of RO6897779 in the presence of Soluplus dissolved in FaSSIF-V1. […] Supersaturation kinetics were assessed at D/P ratios of 10, 20, 30, and 40% corresponding to the polymer concentrations outlined previously. The polymer was dissolved in FaSSIF-V1 at RT and subsequently heated to 37 °C. A concentrated DMSO stock solution was prepared at a concentration of 50 mg mL^–1 RO6897779. From this stock solution, an aliquot of 400 μL was spiked into 19.6 mL of preheated solvent shift medium, so that a nominal concentration of 1 mg mL^–1 RO6897779 was obtained without exceeding DMSO concentrations of 2% [v/v], while assuming a negligible residual solvent influence on solubility.[40] The solutions were stirred at 250 rpm and the temperature was maintained at 37 °C and continuously monitored. At time points of 5, 15, 30, 60, 120, 180, and 240 min, 2 × 200 μL aliquots were withdrawn. […] Subsequently, the supernatant of the media was diluted appropriately with an acetonitrile–water mixture. An intermission of 30 min was introduced as a change in Soluplus phase behavior was expected once the sample reached RT. It was assumed that this intermission would lead to a difference in the sampled concentration of RO6897779.
as §1

In the case of `O=C(OCc1ccc(OC(F)(F)F)cc1)N1C[C@@H]2CN(C(=O)c3ccc4[nH]nnc4c3)C[C@H]2C1` [RO6897779], the crystallization tendency result in data set [1] is reported as “class III”. Moreover, the solubility at 48 h was 22.9 µg/mL (≈ 48.2 µM) in data set [2] (FaSSIF-V1, 37 °C, fassif, thermodynamic from solid, Form I, pH = 6.5 ± 0, read-out: solubility in FaSSIF-V1); 69 µg/mL (≈ 145 µM) in data set [2] (FaSSIF-V1 with Soluplus 1.50 mg mL^–1, aqueous with cosolvent or surfactant or cyclodextrin, thermodynamic from solid, FaSSIF-V1, Soluplus 1.50 mg mL^–1 (D/P 40%), 48 h, 37 °C, read-out: solubility); 96.2 µg/mL (≈ 202 µM) in data set [2] (FaSSIF-V1 with Soluplus 2.33 mg mL^–1, aqueous with cosolvent or surfactant or cyclodextrin, thermodynamic from solid, FaSSIF-V1, Soluplus 2.33 mg mL^–1 (D/P 30%), 48 h, 37 °C, read-out: solubility); 130 µg/mL (≈ 274 µM) in data set [2] (FaSSIF-V1 with Soluplus 4.00 mg mL^–1, aqueous with cosolvent or surfactant or cyclodextrin, thermodynamic from solid, FaSSIF-V1, Soluplus 4.00 mg mL^–1 (D/P 20%), 48 h, 37 °C, read-out: solubility); 215 µg/mL (≈ 452 µM) in data set [2] (FaSSIF-V1 with Soluplus 9.00 mg mL^–1, aqueous with cosolvent or surfactant or cyclodextrin, thermodynamic from solid, FaSSIF-V1, Soluplus 9.00 mg mL^–1 (D/P 10%), 48 h, 37 °C, read-out: solubility); 22.9 µg/mL (≈ 48.2 µM) in data set [2] (pH 6.5, thermodynamic from solid, neat FaSSIF-V1, Soluplus 0.00 mg mL^–1 (D/P 100%), 48 h, 37 °C, read-out: solubility). Also, the “apparent degree of supersaturation (aDS) induced” value is reported as 4.65 in data set [3] (D/P 10%), 7.7 in data set [3] (D/P 20%), 10.4 in data set [3] (D/P 30%) and 14.5 in data set [3] (D/P 40%). The “sampled drug concentration in solvent shift experiment” value in data set [3] (D/P 20%, FaSSIF-V1, after immediate centrifugation and after cooling to RT) was 150–170 μg mL^–1.
